Measurements reported in article PMC6131691 (Chirality, 2012).
Read-outs that look alike come from different tables or passages of the source. Marks after values point to notes of the source that are not given here.

Legend:
[1] = humans; cited from earlier work
SULT isoforms = assay: cDNA-expressed SULT isoform screen, comparison of stereoisomers across isoforms; assay type: in vitro ADME, human; conditions: in each of the SULT isoforms
[2] = tested on: human-derived 1321N1 astrocytoma cells; conditions: read-out: IC50, inhibition of mitogenesis; cited from earlier work
1321N1 tumors = conditions: tumors implanted in the flank of SKID mice; cited from earlier work
SULT1A3 [3] = assay: cDNA-expressed SULT isoform screen, SULT1A3; conditions: relative to SULT1A1*1, SULT1A1*2, SULT1E1
[4] = tested on: human intestinal S9 fractions (mixture of SULT enzymes); assay: Kinetics of sulfation of MF stereoisomers by human intestinal S9 fractions; conditions: read-out: Km (Michaelis constant) of sulfation; human intestinal S9 1 mg/ml, 200 µM PAPS, pH 7.4, 60 min; mean ± SE
[5] = tested on: human intestinal S9 fractions (mixture of SULT enzymes); conditions: pH 7.4
[6] = tested on: human intestinal S9 fractions (mixture of SULT enzymes); conditions: for Reduction of (R,R)-MF conjugation at equimolar concentrations: equimolar with 50 µM [3H]-(R,R)-MF
SULT1A3 [7] = tested on: SULT1A3
β2-AR = conditions: relative to (R,R)-MF; ref unpublished data; cited from earlier work

In the case of `CC(Cc1ccc(O)cc1)NCC(O)c1cc(O)cc(O)c1` [(R,R;S,S)-Fen, fenoterol], the Oral bioavailability [1] is given as ~ 2%.

For `COc1ccc(C[C@@H](C)NC[C@H](O)c2cc(O)cc(O)c2)cc1` [(R,R)-MF, (R,R)-4-methoxyfenoterol], the “Sulfation rate compared with (S,S)-MF, (R,S)-MF and (S,R)-MF” value (SULT isoforms) is given as “significantly (P < 0.0001) lower”, the IC50 [2] is given as 0.00017 µM and the “Growth of 1321N1 tumors” value (1321N1 tumors) is given as “retards the growth”. For the same molecule, the “SULT1A3-mediated conjugation, greater than the sulfation by the other isoforms” value (SULT1A3 [3]) was 1.5- to 2 fold and the Km [4] was 62 ± 1.27 µM.

In the case of `COc1ccc(CC(C)NCC(O)c2cc(O)cc(O)c2)cc1` [(S,S)-MF, 4-methoxyfenoterol], the Km [5] is reported as 89 µM, the “Km (Michaelis constant) of sulfation” value [5] is reported as 89.21 ^a ± 2.59 µM and the IC50 [6] is reported as greater than 200 µM. The “Reduction of (R,R)-MF conjugation at equimolar concentrations” value (“Reduction of (R,R)-MF conjugation” below) ([6]; human intestinal S9) was “little effect” and the “Activity of SULT1E1, lower than SULT1A1*1, SULT1A1*2 and SULT1A3” value (SULT1E1) was 1.3 fold.

With `COc1ccc(CC(C)NCC(O)c2cc(O)cc(O)c2)cc1` [(R,S)-MF, 4-methoxyfenoterol] the Km [5] was 68.5 ± 3.2 µM, the IC50 [6] was greater than 400 µM and the “Reduction of (R,R)-MF conjugation” value ([6]; human intestinal S9) was “little effect”. The “SULT1A1*1-catalyzed sulfation, greater than SULT1A3 and SULT1E1” value (SULT1A1*1) was 1.5 fold and the “SULT1A1*2-catalyzed sulfation, greater than SULT1A3 and SULT1E1” value (SULT1A1*2) was 1.5 fold.

In the case of `COc1ccc(CC(C)NCC(O)c2cc(O)cc(O)c2)cc1` [(S,R)-MF, 4-methoxyfenoterol], the Km [5] is reported as 52 µM, the “Reduction in the production of (R,R)-MF sulfate” value ([6]; 2:1 ratio of (S,R)-MF/(R,R)-MF, human intestinal S9) is reported as 61% and the “Reduction of (R,R)-MF conjugation” value ([6]; human intestinal S9) is reported as ~ 40%. For the same molecule, the “SULT1A3-mediated conjugation, greater than the sulfation by the other isoforms” value (SULT1A3 [7]) was 1.5- to 2 fold and the “β2-AR agonist activity as share of that of (R,R)-MF” value (β2-AR) was “less than 5%”.
